Experimental data taken from article PMC10856354 (International Journal of Molecular Sciences, 2024).
Where a SMILES comes first, the peptide text is derived from it. Bridges are numbered along the chain shown (N, C = ends). [ ]: non-standard residue; d: D form. The star is where a group is joined. DOTA = O=C(O)CN1CCN(CC(=O)O)CCN(CC(=O)*)CCN(CC(=O)O)CC1

Legend:
[1] = target: T1, hSST1R (Homo sapiens, UniProt P30872); assay: Receptor autoradiography competition binding vs [125I]I-[LTT]SS28
T1 construct: expressed in transfected cells; host or cells: CHO cells, gift of Drs; T. Reisine and G. Singh
T1 sequence (P30872 whole entry): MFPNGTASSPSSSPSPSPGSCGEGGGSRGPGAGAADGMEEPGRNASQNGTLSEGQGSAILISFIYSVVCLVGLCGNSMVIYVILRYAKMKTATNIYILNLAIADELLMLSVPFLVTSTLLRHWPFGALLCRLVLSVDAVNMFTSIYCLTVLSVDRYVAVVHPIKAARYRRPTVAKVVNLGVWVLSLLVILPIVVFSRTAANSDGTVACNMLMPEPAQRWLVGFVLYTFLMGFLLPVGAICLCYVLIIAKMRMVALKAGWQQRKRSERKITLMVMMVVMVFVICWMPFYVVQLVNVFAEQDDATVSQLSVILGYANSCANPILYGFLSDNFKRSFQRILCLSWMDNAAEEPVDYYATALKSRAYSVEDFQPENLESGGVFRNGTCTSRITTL
Procedure: (§1) Cell membrane pellets were prepared from CHO-hSST1R cells, CCL39-hSST2R, CCL39-hSST3R, and CCL39-hSST4R cells, and HEK293-hSST2R cells and stored at −80 °C. Receptor autoradiography was performed on 20-μm-thick cryostat (Microm HM 500, Walldorf, Germany) sections of the membrane pellets mounted on microscope slides, and then stored at −20 °C, as previously described. […] The incubated sections were washed twice for 5 min in cold 170 mmol/L Tris-HCl (pH 8.2) containing 0.25% BSA. After a brief dip in 170 mmol/L Tris-HCl (pH 8.2), the sections were dried quickly and exposed for 1 week to Kodak BioMax MR film (Rochester, NY, USA). IC50 values were calculated after quantification of the data using a computer-assisted image processing system as described previously. Tissue standards (Autoradiographic [^125I] and/or [^14C] microscales, GE Healthcare; Little Chalfont, UK) that contain known amounts of isotope, cross-calibrated to tissue-equivalent ligand concentrations, were used for quantification.

[2] = target: T2, hSST2R (Homo sapiens, UniProt P30874); assay: as above
T2 construct: expressed in transfected cells
T2 sequence (P30874 whole entry): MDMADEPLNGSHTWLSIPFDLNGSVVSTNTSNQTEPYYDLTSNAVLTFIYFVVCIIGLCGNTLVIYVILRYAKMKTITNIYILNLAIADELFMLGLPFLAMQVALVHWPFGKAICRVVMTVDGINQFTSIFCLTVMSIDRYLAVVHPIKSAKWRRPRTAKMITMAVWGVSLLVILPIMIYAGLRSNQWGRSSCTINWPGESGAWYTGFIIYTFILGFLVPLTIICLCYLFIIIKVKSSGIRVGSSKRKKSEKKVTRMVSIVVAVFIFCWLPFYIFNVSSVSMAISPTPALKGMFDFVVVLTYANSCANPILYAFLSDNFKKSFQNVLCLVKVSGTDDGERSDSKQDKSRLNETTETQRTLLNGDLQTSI
Procedure: as §1

[3] = target: T3, hSST3R (Homo sapiens, UniProt P32745); assay: as above
T3 construct: expressed in transfected cells; host or cells: CCL39 cells, gift of Dr. D. Hoyer (Novartis Pharma)
T3 sequence (P32745 whole entry): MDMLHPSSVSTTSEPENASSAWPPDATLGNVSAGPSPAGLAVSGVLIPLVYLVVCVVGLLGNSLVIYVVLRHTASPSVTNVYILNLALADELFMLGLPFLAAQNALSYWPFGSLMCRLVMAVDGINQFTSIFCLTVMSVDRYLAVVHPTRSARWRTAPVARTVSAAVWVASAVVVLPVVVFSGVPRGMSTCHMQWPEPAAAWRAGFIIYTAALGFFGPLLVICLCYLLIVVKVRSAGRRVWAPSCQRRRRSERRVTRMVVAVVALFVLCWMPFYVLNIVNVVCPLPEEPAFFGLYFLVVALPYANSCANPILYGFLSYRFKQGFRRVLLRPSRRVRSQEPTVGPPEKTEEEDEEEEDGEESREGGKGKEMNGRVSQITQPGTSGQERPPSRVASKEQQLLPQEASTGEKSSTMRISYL
Procedure: as §1

[4] = target: T2, hSST2R; assay: Immunofluorescence microscopy-based internalization assay in HEK293-hSST2R cells; format: cell-based; details: for ligand-induced hSST2R internalization (agonism): 30 min at 37 °C
Procedure: Figure 3 Agonist stimulated hSST2R-internalization in HEK293-hSST2R cells determined by immunofluorescence microscopy.
An immunofluorescence microscopy-based internalization assay for hSST2R was performed in HEK293-hSST2R cells, grown on poly-DLys (20 μg/mL) (Sigma-Aldrich, St. Louis, MO, USA) coated 35-mm four-well plates (Cellstar, Greiner Bio-One GmbH, Frickenhausen, Germany). […] HEK293-hSST2R cells treated with vehicle alone were used as a negative control. The cells were then rinsed twice with PS (100 mM phosphate buffer containing 0.15 M sucrose), fixed and permeabilized for 7 min with cold methanol (−20 °C), rinsed twice with PS, and then blocked for 60 min at room temperature with PS containing 0.1% BSA. Next, cells were incubated for 60 min at room temperature with the hSST2R-specific primary antibody R2-88 (provided by Dr. A. Schönbrunn, Houston, TX, USA) diluted 1:1000 in PS and washed 3 × 5 min with PS containing 0.1% BSA. The cells were incubated for 60 min at room temperature in the dark with the secondary antibody Alexa Fluor 488 goat anti-rabbit IgG (H+ L) (Molecular Probes, Inc., Eugene, OR, USA) diluted in PS (1:600), washed 3 × 5 min with PS containing 0.1% BSA, embedded with PS/glycerol 1:1, and covered with a glass cover slip. The cells were imaged using a Leica DM RB immunofluorescence microscope (Leica, Deerfield, IL, USA) and an Olympus DP10 camera (Olympus Corporation, Shinjuku, Tokyo, Japan).

[5] = target: T4, hSST5R (Homo sapiens, UniProt P35346); assay: Receptor autoradiography competition binding vs [125I]I-[LTT]SS28
T4 construct: expressed in transfected cells
T4 sequence (P35346 whole entry): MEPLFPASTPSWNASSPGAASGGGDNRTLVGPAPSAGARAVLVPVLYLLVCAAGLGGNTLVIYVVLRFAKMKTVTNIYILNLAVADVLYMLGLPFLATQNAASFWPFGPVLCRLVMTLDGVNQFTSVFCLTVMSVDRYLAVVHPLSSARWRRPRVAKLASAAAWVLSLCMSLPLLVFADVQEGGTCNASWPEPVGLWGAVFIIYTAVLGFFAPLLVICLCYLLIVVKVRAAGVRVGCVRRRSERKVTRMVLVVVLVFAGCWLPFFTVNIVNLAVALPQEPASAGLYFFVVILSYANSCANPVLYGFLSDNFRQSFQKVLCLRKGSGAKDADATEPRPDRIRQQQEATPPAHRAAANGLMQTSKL

Structure (SMILES)	IC50 [1] [nM]	IC50 [2] [nM]	IC50 [3] [nM]	ligand-induced hSST2R internalization (agonism) ([4]; 1 µM)	prevention of SS14-induced hSST2R internalization (antagonism) ([4]; 10 µM test peptide + 10 nM SS14, 30 min at 37 °C)	ligand-induced hSST2R internalization (agonism) ([4]; 10 µM)	IC50 [5] [nM]	drop in binding affinity for hSST1R compared with native hormone ([1]; vs SS14) [fold]	lower affinity for hSST2R compared with AT2S ([2]; vs AT2S) [fold]	drop in binding affinity for hSST2R compared with native hormone ([2]; vs SS14) [fold]	lower affinity for hSST3R compared with AT2S ([3]; vs AT2S)	drop in binding affinity for hSST3R compared with native hormone ([3]; vs SS14)	lower affinity for hSST5R compared with AT2S ([5]; vs AT2S) [fold]	drop in binding affinity for hSST5R compared with native hormone ([5]; vs SS14) [fold]
C[C@H](NC(=O)CN1CCN(CC(=O)O)CCN(CC(=O)O)CCN(CC(=O)O)CC1)C(=O)NCC(=O)N[C@H]1CSSC[C@@H](C(=O)O)NC(=O)[C@H](CO)NC(=O)[C@H]([C@@H](C)O)NC(=O)[C@@H]2CSSC[C@H](NC(=O)[C@H](CC(N)=O)NC(=O)[C@H](CCCCN)NC1=O)C(=O)N[C@@H](Cc1ccccc1)C(=O)N[C@H](Cc1c[nH]c3ccccc13)C(=O)N[C@@H](CCCCN)C(=O)N[C@@H]([C@@H](C)O)C(=O)N2 [AT5S, DOTA-Ala^1-Gly^2-c[Cys^3-Lys^4-Asn^5-c[Cys^6-Phe^7-DTrp^8-Lys^9-Thr^10-Cys^11]-Thr^12-Ser^13-Cys^14]] ({DOTA}-AGCKNCF[dW]KTCTSC-OH; disulfide 3-14, 6-11)	> 1000	616 ± 148	> 1000	failed to trigger the hSST2R internalization	failed to prevent the hSST2R internalization	failed to trigger the hSST2R internalization	> 1000							
C[C@H](NC(=O)CN1CCN(CC(=O)O)CCN(CC(=O)O)CCN(CC(=O)O)CC1)C(=O)NCC(=O)N[C@H]1CSSC[C@@H](C(=O)O)NC(=O)[C@H](CO)NC(=O)[C@@H]2CSSC[C@H](NC(=O)[C@H](CCCCN)NC1=O)C(=O)N[C@@H](Cc1ccccc1)C(=O)N[C@@H](Cc1ccccc1)C(=O)N[C@H](Cc1c[nH]c3ccccc13)C(=O)N[C@@H](CCCCN)C(=O)N[C@@H]([C@@H](C)O)C(=O)N[C@@H](Cc1ccccc1)C(=O)N2 [AT6S, DOTA-Ala^1-Gly^2-c[Cys^3-Lys^4-c[Cys^5-Phe^6-Phe^7-DTrp^8-Lys^9-Thr^10-Phe^11-Cys^12]-Ser^13-Cys^14]] ({DOTA}-AGCKCFF[dW]KTFCSC-OH; disulfide 3-14, 5-12)	12 ± 3.3	6.3 ± 0.6	9.7 ± 3.6	behaved as a potent agonist			26 ± 7	< 6	< 4	9	≈ 4 fold	≈ 3 fold	< 2	< 6
